Test results as given in ChEMBL document CHEMBL1201862, “PubChem BioAssay data set” (2004).
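Compound exposure: 48 hours, 5 concentrations, 96-well plates. At the GI50, growth is halved.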 Activity calls are given as the source filed them. Cut-off read from the data, not from the text of the source: active = GI50 up to about 1.1 µM and inactive = higher.

Key:
Assay in all cases: NCI anticancer screen, dose series, 48 h
OVCAR-8 = system: OVCAR-8
HOP-62 = system: HOP-62
NCI-H460 = system: NCI-H460
OVCAR-3 = system: OVCAR-3
OVCAR-5 = system: OVCAR-5
LOX IMVI = system: LOX IMVI
U-251 = system: U-251
SK-MEL-2 = system: SK-MEL-2
Hs-578T = system: Hs-578T
HCC 2998 = system: HCC 2998
CAKI-1 = system: CAKI-1
SW-620 = system: SW-620
A498 = system: A498
NCI-H226 = system: NCI-H226
SK-OV-3 = system: SK-OV-3
EKVX = system: EKVX
KM12 = system: KM12
SK-MEL-5 = system: SK-MEL-5
IGROV-1 = system: IGROV-1
UACC-257 = system: UACC-257

SMILES | GI50 (OVCAR-8) | GI50 (HOP-62) | GI50 (NCI-H460) | GI50 (OVCAR-3) | GI50 (OVCAR-5) | GI50 (LOX IMVI) | GI50 (U-251) | GI50 (SK-MEL-2) | GI50 (Hs-578T) | GI50 (HCC 2998) | GI50 (CAKI-1) | GI50 (SW-620) | GI50 (A498) | GI50 (NCI-H226) | GI50 (SK-OV-3) | GI50 (EKVX) | GI50 (KM12) | GI50 (SK-MEL-5) | GI50 (IGROV-1) | GI50 (UACC-257)
Cc1ccnc2sc3ccccc3c(=O)c12 | 43.1 µM (inactive) | 98.4 µM (inactive) | 24 µM (inactive) | 91.6 µM (inactive) | 48.5 µM (inactive) | 29.5 µM (inactive) | 56.8 µM (inactive) | 81.1 µM (inactive) | 27.3 µM (inactive) | 42.3 µM (inactive) | 23.6 µM (inactive) | 44.3 µM (inactive) | 29.8 µM (inactive) | 36.1 µM (inactive) | 37.3 µM (inactive) | 18 µM (inactive) | 53.7 µM (inactive) | 24.7 µM (inactive) | 30.7 µM (inactive) | 55.2 µM (inactive)
S=C1Cc2c(-c3ccc(Cl)cc3)cc(-c3ccccc3)nc2-c2ccccc2N1 | 2.86 µM (inactive) | 6.98 µM (inactive) | 13 µM (inactive) | 13 µM (inactive) | 24.5 µM (inactive) | 13.9 µM (inactive) | 4.03 µM (inactive) | 17.7 µM (inactive) | 3.56 µM (inactive) | 23.9 µM (inactive) | 3.95 µM (inactive) | 19.1 µM (inactive) | 14.8 µM (inactive) | 13.1 µM (inactive) | 10.6 µM (inactive) | 15.6 µM (inactive) | 4.85 µM (inactive) | 16 µM (inactive) | 3.83 µM (inactive) | 14.1 µM (inactive)
CCOC(=O)Cn1nnc2cc(Nc3nc4ccccc4nc3C(=O)OCC)ccc21 | 49.7 µM (inactive) | 24.4 µM (inactive) | > 100 µM (inactive) | > 100 µM (inactive) | > 100 µM (inactive) | > 100 µM (inactive) | 36 µM (inactive) | 78.2 µM (inactive) | 36.5 µM (inactive) | > 100 µM (inactive) | > 100 µM (inactive) | > 100 µM (inactive) | 46.1 µM (inactive) | > 100 µM (inactive) | 50.2 µM (inactive) | 33.7 µM (inactive) | > 100 µM (inactive) | > 100 µM (inactive) | > 100 µM (inactive) | > 100 µM (inactive)
COc1cc(-c2cn(S(=O)(=O)c3ccc(C)cc3)c3ccccc23)nc(-c2cn(S(=O)(=O)c3ccc(C)cc3)c3ccccc23)n1 | 0.94 µM (active) | 1.84 µM (inactive) | 0.388 µM (active) | 0.586 µM (active) | 1.13 µM (inactive) | 0.6 µM (active) | 0.354 µM (active) | 0.984 µM (active) | 0.433 µM (active) | 0.516 µM (active) | 1.3 µM (inactive) | 2.9 µM (inactive) | 1.32 µM (inactive) | 0.935 µM (active) | 2.25 µM (inactive) | 0.783 µM (active) | 0.438 µM (active) | 0.566 µM (active) | 0.728 µM (active) | 52.5 µM (inactive)
C=C1CC(Cn2cc(Br)c(=O)[nH]c2=O)(c2ccc(-c3ccccc3)cc2)OC1=O (stereo not given) | 0.466 µM (active) | 4.23 µM (inactive) | 6.25 µM (inactive) | 1.63 µM (inactive) | 4.8 µM (inactive) | 0.582 µM (active) | 5.92 µM (inactive) | 1.49 µM (inactive) | 2.74 µM (inactive) | 1.66 µM (inactive) | 1.13 µM (inactive) | 0.341 µM (active) | 0.776 µM (active) | 1.83 µM (inactive) | 4.31 µM (inactive) | 2.16 µM (inactive) | 1.52 µM (inactive) | 1.27 µM (inactive) | 1.4 µM (inactive) | 0.836 µM (active)
CC(=O)c1ccc2c(c1)C(=O)c1sc(C(C)=O)cc1C2=O | 0.695 µM (active) | 1.73 µM (inactive) | 1.37 µM (inactive) | 0.368 µM (active) | 1.08 µM (active) | 0.22 µM (active) | 1.56 µM (inactive) | 1.47 µM (inactive) | 1.46 µM (inactive) | 3.17 µM (inactive) | 1.75 µM (inactive) | 0.738 µM (active) | 21.6 µM (inactive) | 1.04 µM (active) | 6.98 µM (inactive) | 1.18 µM (inactive) | 1.01 µM (active) | 0.389 µM (active) | 1.07 µM (active) | 0.859 µM (active)
Nc1ccc(C(=O)Nc2ccccc2N)cc1 [DINALINE] | 8.99 µM (inactive) | 18.7 µM (inactive) | 18.5 µM (inactive) | 29.1 µM (inactive) | 8.15 µM (inactive) | 21 µM (inactive) | 17.7 µM (inactive) | 23.3 µM (inactive) | 22.3 µM (inactive) | 17.5 µM (inactive) | 42.8 µM (inactive) | 19.2 µM (inactive) | 27.5 µM (inactive) | > 78.5 µM (inactive) | > 100 µM (inactive) | 66.2 µM (inactive) | 44.5 µM (inactive) | 16.3 µM (inactive) | 31.1 µM (inactive) | 17.7 µM (inactive)
